Tests used:
Eleusine indica = assay: Post-emergence herbicidal activity (greenhouse), Eleusine indica, Example 1; assay type: in vivo; conditions: L-glufosinate ammonium 150
Procedure: (§1) The expected efficacy of a combination of L-glufosinate ammonium and the other herbicides was calculated using the well-established Colby method. Any difference between the observed and “expected” efficacy could be attributed to synergy between the two compounds.
(§2) In the Colby method, the expected (or predicted) response of a combination of herbicides is calculated by taking the product of the observed response for each individual component of the combination when applied alone, divided by 100, and subtracting this value from the sum of the observed response for each component when applied alone. An unexpected enhancement in efficacy of the combination is then determined by comparing the observed response of the combination to the expected (or predicted) response as calculated from the observed response of each individual component alone. If the observed response of the combination is greater than the expected (or predicted) response, or stated conversely, if the difference between the observed and expected response is greater than zero, then the combination is said to be synergistic or unexpectedly effective (Colby, S. R., Weeds, 1967(15), p. 20-22). The Colby method requires only a single dose of each herbicide applied alone and the mixture of both doses. The formula used to calculate the expected efficacy (EE) which was compared with the observed efficacy (OE) to determine the efficacy of the present disclosure is explained hereinbelow:
(§3) The expected efficacy for a combination of two active ingredients is as follows:
(§4) Evaluation of Post-Emergence Herbicidal Activity
(§5) Methodology: Greenhouse trials were conducted to evaluate the efficacy of the combination comprising L-glufosinate ammonium and clethodim on weeds Eleusine indica, Brachiaria decumbens, Spermacoce latifolia and weedy Glycine max.
(§6) The soil used was sandy clay loam—sand: 68.0%; silt: 8.0%; clay: 24.0%.
(§7) All treatments were in 3 replications per treatment with a spray volume of about 150 L/ha.
Example 1: Efficacy of L-Glufosinate Ammonium and Clethodim on Eleusine indica
The percentage efficacy was calculated after 3, 7, 28 and 35 days of application (DAA). The target weed was Eleusine indica, and the concentration of the herbicide and the results are recorded in the Table 1.

Brachiaria decumbens = assay: Post-emergence herbicidal activity (greenhouse), Brachiaria decumbens, Example 2; assay type: in vivo; conditions: L-glufosinate ammonium 150, clethodim 45 g a.i./ha
Procedure: as §1, §2, §3, §4, §5, §6, §7
Example 2: Efficacy of L-Glufosinate Ammonium and Clethodim on Brachiaria decumbens
The percentage efficacy was calculated after 7, 14, 21, 28 and 35 days of application (DAA). The target weed was Brachiaria decumbens, and the concentration of the herbicides and the results are recorded in the Table 2.

Spermacoce latifolia = assay: Post-emergence herbicidal activity (greenhouse), Spermacoce latifolia, Example 3; assay type: in vivo; conditions: 7 DAA
Procedure: as §1
as §2, with “The Colby method requires only a single dose of each herbicide applied alone and the mixture of both doses. The formula used to calculate the expected efficacy (EE) which was compared with the observed efficacy (OE) to determine the efficacy of the present disclosure is explained hereinbelow:” left out
The percentage efficacy was calculated after 7 days of application (DAA). The target weed was Spermacoce latifolia, and the concentration of the herbicide and the results are recorded in the Table 3.

weedy Glycine max = assay: Post-emergence herbicidal activity (greenhouse), weedy Glycine max, Example 4; assay type: in vivo; conditions: L-glufosinate ammonium 150
Procedure: as §1, §2, §3, §4, §5, §6, §7
Example 4: Efficacy of L-Glufosinate Ammonium and Clethodim on Weedy Glycine max
The percentage efficacy was calculated after 3, 7, 14, 21, 28 and 35 days of application (DAA). The target weed was weedy Glycine max, and the concentration of the herbicide and the results are recorded in the Table 4.

[1] = cited from earlier work
[2] = system: Viola arvensis, Bromus spp., Lolium spp., Agropyron repens and Urtica urens; conditions: Hoechst et al., 1991; cited from earlier work

| SMILES | % Control (Eleusine indica; 3 DAA) | % Control (Eleusine indica; 7 DAA) | % Control (Eleusine indica; 28 DAA) | % Control (Eleusine indica; 35 DAA) | % Control (Brachiaria decumbens; 7 DAA) | % Control (Brachiaria decumbens; 14 DAA) | % Control (Brachiaria decumbens; 21 DAA) | % Control (Brachiaria decumbens; 28 DAA) | % Control (Brachiaria decumbens; 35 DAA) | % Control (Spermacoce latifolia) | % Control (weedy Glycine max; 3 DAA) | % Control (weedy Glycine max; 7 DAA) | % Control (weedy Glycine max; 14 DAA) | % Control (weedy Glycine max; 21 DAA) | % Control (weedy Glycine max; 28 DAA) | % Control (weedy Glycine max; 35 DAA) | herbicidal activity relative to glyphosate ([1]; vs glyphosate) | herbicidal activity relative to paraquat ([1]; vs paraquat) | herbicidal activity relative to racemic glufosinate (DL-glufosinate) ([1]; vs racemic glufosinate) | weed species either not combated, or only weakly combated [2] |
| --- | --- | --- | --- | --- | --- | --- | --- | --- | --- | --- | --- | --- | --- | --- | --- | --- | --- | --- | --- | --- |
| CP(=O)(O)CC[C@H](N)C(=O)O.N [L-glufosinate ammonium, ammonium (2S)-2-amino-4-(methylphosphinato)butyric acid] | 12.3% | 50.7% | 59.3% | 54.3% | 50% | 79.3% | 82% | 79.3% | 79.3% | 31.7% | 15% | 53.3% | 71% | 66.7% | 56.7% | 41.7% |  |  |  |  |
| CCSC(C)CC1CC(=O)C(/C(CC)=N/OC/C=C/Cl)=C(O)C1 (stereo not drawn) [Clethodim, clethodim] | 6.7% | 15% | 81.7% | 84.3% | 15% | 55% | 65% | 75% | 71% | 3% | 0% | 0% | 0% | 0% | 0% | 0% |  |  |  |  |
| CP(=O)(O)CC[C@H](N)C(=O)O [L-Glufosinate, (S)-2-amino-4-(hydroxy(methyl)phosphonoyl)butanoic acid] |  |  |  |  |  |  |  |  |  |  |  |  |  |  |  |  | about four times that of glyphosate | about twice that of paraquat | more than about twice that of racemic glufosinate |  |
| CP(=O)(O)CCC(N)C(=O)O (racemic) [Glufosinate, DL-homoalanin-4-yl(methyl)phosphinic acid] |  |  |  |  |  |  |  |  |  |  |  |  |  |  |  |  |  |  |  | either not combated, or only weakly combated |
